Data: US20240058291A1, “COMPOSITION FOR CONTROLLING SUGAR, CONTAINING ATYPICAL PKC ACTIVATOR” (INDUSTRY-ACADEMIC COOPERATION FOUNDATION, YONSEI UNIVERSITY, priority 2021, published 2024)

Columns and labels:
[1] = test system: IEC-18 cells; test: Western blot of PKC and GLUT1 activation over time, IEC-18 cells; format: cell-based; details: prostratin 2 μM; for activities of PKC zeta and GLUT1: ingenol 0.1 μM, 0, 15 and 60 minutes
Experimental: After treatment of IEC-18 cells with each of prostratin (2 μM) and ingenol (0.1 μM) for 0, 15, and 60 minutes, the expression of PKC and GLUT1 proteins was analyzed by Western blotting.

[2] = test system: db/db mice; test: Body weight in diabetic model mice, daily intraperitoneal injection for 40 days; format: in vivo
Experimental: Each of prostratin (0.5 mg/kg) and ingenol (1 μg/kg) was intraperitoneally injected daily for 40 days into db/db mice (Jackson Laboratory), known as a representative diabetes model due to deficiency of the leptin receptor, and then the body weight of each mouse was measured.

[3] = test system: IEC-18 cells; test: Western blot of GLUT transporters after treatment, IEC-18 cells; format: cell-based; details: for GLUT1 phosphorylation: 30, 100 and 300 nM, 30 minutes, Western blot; for expression of p-GLUT1 and GLUT1: compared to Na/K ATPase
Experimental: (§1) For culture of IEC-6 cells (ATCC CRL-1592) and IEC-18 cells (ATCC CRL-1589), which are intestinal epithelial cells, the cells were cultured using Dulbecco's modified Eagle medium (DMEM) supplemented with 10% fetal bovine serum (FBS) and penicillin-streptomycin at 37° C. in a humidified atmosphere containing 10% CO2 and 90% air, and were subcultured every 3 to 4 days. […] When the cell density reached 1.5×10^5 cells/cm^2 after 6 days, the cultures were collected and used. Prostratin was purchased from Sigma-Aldrich (Cat. No. P0077) and used. Ingenol was purchased from Sigma-Aldrich (Cat. No. SML1318) and used. IEC-6 cells and IEC-18 cells were treated with each of prostratin and ingenol at 30 nM, 100 nM, and 300 nM for 30 minutes, cell lysates were collected, and protein expression levels thereof were analyzed by Western blotting. Western blot analysis was performed as follows. Total cell protein lysates were prepared and subjected to Western blot analysis according to standard procedures. Briefly, cells were chilled on ice, washed twice with ice-cold phosphate-buffered saline, and lysed in buffer containing 1 mM. phenylmethylsulfonyl fluoride and lx protease inhibitor (Sigma-Aldrich). Protein concentration was measured with a Bradford assay kit (Bio-Rad, Hercules, CA, USA). Equal amounts of protein from the cell lysates were resolved by sodium dodecyl sulfate polyacrylamide gel electrophoresis and transferred to membranes which were then incubated with anti-PKCα (Cell Signaling Technology, USA), anti-PKCδ (Cell Signaling Technology, USA), anti-PKCζ (Cell Signaling Technology, USA), anti-p-GLUT1 (Abcam, GB), anti-GLUT1 (Abcam, GB) and anti-GLUT2 (Novus Biological, USA) as primary antibodies overnight at 4° C. The blots were washed 3 times with TBST (Tris-buffered saline containing 0.05% Tween 20) and then incubated with horseradish peroxidase (HRP)-conjugated secondary antibodies for 1 hour at 25° C. As the secondary antibodies, donkey anti-rabbit IgG-HRP antibody (1:5000, Santa Cruz) and donkey anti-mouse IgG-HRP antibody (1:5000, Santa Cruz) were used. Immunoreactivity was detected with SuperSignal West Pico Chemiluminescent Substrate (Thermo Fisher Scientific, MA, USA).

[4] = test system: IEC-6 cells; test: Western blot of GLUT transporters after treatment, IEC-6 cells; format: cell-based; details: for GLUT1 phosphorylation: 30, 100 and 300 nM, 30 minutes, Western blot; for expression of p-GLUT1 and GLUT1: compared to Na/K ATPase
Experimental: as §1

[5] = test system: IEC-6 cells; test: Western blot of PKC zeta, p-GLUT1 and GLUT1 with ingenol, IEC-6 cells; format: cell-based; details: ingenol 0.1 μM, vs empty vector negative control
Experimental: (§2) Transfected cell lines were generated by transfection such that PKC zeta was transiently overexpressed in IEC-6 cells, IEC-18 cells, and HEK293 (ATCC CRL-1573) cells. A rat PKC zeta-expressing plasmid (Korea Gene Bank) was subcloned into pCDNA3.1 (Addgene, USA). […] Cells were transfected with the expression plasmid using Polyjet transfection reagent (SignaGen) according to the manufacturer's instructions. Transfected cells were cultured for 48 hours at 37° C. before lysis and treated with ingenol (0.1 μM). Cell lysates were collected for the empty vector-infected cell group as a control group, the PKC zeta-transfected cell group, the wild-type cell group treated with ingenol, and the transfected cell group treated with ingenol, and subjected to Western blotting. In Western blotting, Na/K ATPase was used as a membrane loading control.

[6] = test system: IEC-18 cells; test: Western blot of PKC zeta, p-GLUT1 and GLUT1 with ingenol, IEC-18 cells; format: cell-based; details: ingenol 0.1 μM, vs empty vector negative control
Experimental: as §2

[7] = test system: IEC-18 cells; test: Intracellular glucose (2-DG) uptake, IEC-18 cells; format: cell-based; details: 100 nM
Experimental: (§3) IEC-6 cells and IEC-18 cells were treated with each of prostratin and ingenol (100 nM) for 10 minutes, and then uptake of 2-deoxy-D-glucose (2-DG) in the collected cell lysates was analyzed. By measuring the glucose concentration, changes in glucose uptake (2-DG uptake) by treatment with each of prostratin and ingenol were determined. The amount of glucose was measured after treatment with each of prostratin and ingenol in a low-concentration glucose medium and serum-free DMEM for 24 hours. Glucose levels in the IEC-6 and IEC-18 cells were detected using a Glucose Assay Kit (Cayman Chemical) according to the manufacturer's instructions. Absorbance signals were measured with a Gen5 spectrophotometer (BioTek, Winooski, VT, USA).

[8] = test system: IEC-6 cells; test: Intracellular glucose (2-DG) uptake, IEC-6 cells; format: cell-based; details: 100 nM
Experimental: as §3

[9] = test system: IEC-18 cells; test: Glucose uptake with and without PKC zeta inhibitor ZIP, IEC-18 cells; format: cell-based; details: 100 nM
[10] = test system: IEC-6 cells; test: Glucose uptake with and without PKC zeta inhibitor ZIP, IEC-6 cells; format: cell-based; details: 100 nM
[11] = test system: HEK293; test: Western blot of PKC zeta, p-GLUT1 and GLUT1 with ingenol, HEK293 cells; format: cell-based; details: vs empty vector negative control
Experimental: as §2

[12] = test system: C57BL6 mice; test: IP glucose tolerance test after single subcutaneous injection; format: in vivo; details: 2 g/kg glucose
Experimental: After 12 C57BL6 mice were fasted for 12 hours, fasting blood glucose was measured by performing an intraperitoneal glucose test. Thereafter, ingenol (4 μg/kg) and prostratin (1 mg/kg) was injected subcutaneously once into the ingenol-administered group (4 mice) and the prostratin-administered group, respectively, and 2 g of glucose per kg of mouse (2 g/kg glucose) was diluted in physiological saline and intraperitoneally administered to each mouse. Thereafter, an IP glucose tolerance test was performed at 15 minutes, 30 minutes, 60 minutes, 90 minutes, and 120 minutes.

[13] = test system: db/db mice; test: Intraperitoneal glucose tolerance test (IPGTT) in diabetic model mice on day 17; format: in vivo
Experimental: Each of prostratin (0.5 mg/kg) and ingenol (1 μg/kg) was intraperitoneally injected daily for 40 days into db/db mice (Jackson Laboratory), known as a representative diabetes model due to deficiency of the leptin receptor, and then the body weight of each mouse was measured. On day 17 after drug administration, an intraperitoneal glucose tolerance test (IPGTT) was performed. […] In the group to which 1 μg/kg of ingenol was administered, the glucose improvement effect appeared at 240 minutes after glucose administration.

[14] = test system: IEC-6 cell line; test: 2DG uptake after PKC siRNA transfection; format: cell-based; details: prostratin 1 μM or ingenol 100 nM
Experimental: In order to identify which PKC subtypes induce increased glucose uptake (2DG uptake) in IEC cells by treatment with each of prostratin and ingenol, the IEC-6 cell line was transfected with siRNA for each of conventional PKC (PKCα), novel PKC ([…]), and atypical PKCs (PKCζ and […]) as described in Example 7. After 48 hours, the cells were treated with prostratin (1 μM) or ingenol (100 nM), and 2DG uptake therein was analyzed.

[15] = test system: human pancreatic tumors; details: orally administered; cited from earlier work
[16] = test system: db/db mice; test: 18FDG absorption and excretion in intestines of diabetic model mice; format: in vivo; details: 0.5 mg/kg for 1 month
Experimental: The intestines of db/db mice (Jackson Laboratory) to which 0.5 mg/kg of prostratin had been administered for 1 month were harvested and radiographed for 18FDG (fluorodeoxyglucose, DuChemBio). 18FDG was purchased from DuChemBio and 200 μCi was injected into each mouse via the tail vein. In addition, 18FDG in a fecal sample obtained by washing the harvested small intestine with 5 mL of PBS was measured, and 18FDG uptake of the duodenum, jejunum, and ileum of the small intestine was measured with a gamma counter.

[17] = test system: db/db mice; test: Electron microscopy of apical membrane of jejunum lumen of diabetic model mice; format: in vivo; details: 0.5 mg/kg for 1 month, electron microscope
[18] = test system: C57BL6 mice; test: IP glucose tolerance test after 2 weeks of administration by osmotic pump; format: in vivo; details: 0.5 mg/kg and 1 mg/kg for 2 weeks, 2 g/kg glucose
Experimental: Prostratin was administered to C57BL6 mice at concentrations of 0 mg/kg, 0.5 mg/kg, and 1 mg/kg for 2 weeks using an osmotic pump, followed by fasting for 12 hours. Then, 2 g of glucose per kg of mouse (2 g/kg glucose) was diluted in physiological saline and intraperitoneally administered to each mouse. Thereafter, an IP glucose tolerance test was performed at 15 minutes, 30 minutes, 60 minutes, 90 minutes, and 120 minutes.

[19] = test system: db/db mice; test: Immunohistochemical staining of PKC zeta in small intestine of diabetic model mice; format: in vivo; details: 0.5 mg/kg for 1 month
Experimental: After administration of prostratin (0.5 mg/kg) or vehicle to db/db mice for 1 month, the small intestine was harvested, and the duodenum, jejunum, and ileum were fixed with formalin, subjected to immunohistochemical staining with anti-PKC zeta antibody (Abcam, USA), and imaged with an optical microscope at 100× and 400× magnifications.

[20] = test system: IEC-6 cell line; test: Western blot of p-GLUT1 after PKC siRNA transfection and prostratin treatment; format: cell-based; details: prostratin 1 μM
Experimental: To identify which PKC subtypes induce GLUT1 activation by each of prostratin and ingenol, the IEC-6 cell line was transfected with 50 nM of siRNA for each of conventional PKC (PKCα), novel PKC ([…]), and atypical PKCs (PKCζ and […]) using RNAiMax (Invitrogen). After 48 hours, the cells were treated with prostratin (1 μM), and total protein was extracted and subjected to Western blotting. The siRNA sequences used are as follows.

[21] = atypical PKC (PKCζ and PKC↓)-knockdown group

C/C=C(/C)C(=O)O[C@H]1C(C)=C[C@]23C(=O)[C@@H](C=C(CO)[C@@H](O)[C@]12O)[C@H]1[C@@H](C[C@H]3C)C1(C)C [ingenol-3-angelate]
activities of PKC zeta and GLUT1 [1]: increased | weight loss ([2]; ingenol 1 μg/kg i.p. daily, increased to 2 μg/kg on day 28, day 30): showed statistical significance | GLUT1 phosphorylation [3]: promoted | expression of p-GLUT1 and GLUT1 [3]: increased | GLUT1 phosphorylation [4]: promoted | expression of p-GLUT1 and GLUT1 [4]: increased | GLUT1 translocation [5]: translocated | PKC zeta activation and translocation to the cell membrane [5]: activated and translocated to the cell membrane | GLUT1 translocation [6]: translocated | PKC zeta activation and translocation to the cell membrane [6]: activated and translocated to the cell membrane | intracellular glucose (2-DG) uptake [7]: increased | intracellular glucose (2-DG) uptake [8]: increased | 6-phosphate glucose in the cells [9]: increased | 6-phosphate glucose in the cells [10]: increased | GLUT1 translocation [11]: translocated | PKC zeta activation and translocation to the cell membrane [11]: activated and translocated to the cell membrane | glucose metabolism (IP glucose tolerance test) compared to negative control ([12]; ingenol 4 μg/kg subcutaneously once): improved | glucose improvement effect (IPGTT) ([13]; ingenol 1 μg/kg, at 240 minutes after glucose administration): appeared | 2DG uptake [14, 21]: not increased | 2DG uptake ([14]; negative control group (siNeg)): increased

CC(=O)O[C@@]12C[C@@H](C)[C@@]3(O)[C@@H](C=C(CO)C[C@]4(O)C(=O)C(C)=C[C@@H]34)[C@@H]1C2(C)C [prostratin]
translocation of PKC and GLUT1 to the cell membrane, prostratin compared with ingenol ([1]; ingenol 0.1 μM): more rapidly translocated | activities of PKC zeta and GLUT1 [1]: increased | weight loss compared to vehicle group ([2]; prostratin 0.5 mg/kg i.p. daily, on and after day 11): showed statistical significance | GLUT1 phosphorylation [3]: promoted | expression of p-GLUT1 and GLUT1 [3]: increased | effect on human pancreatic tumors [15]: inhibited | glucose absorption in duodenum, jejunum and ileum (18FDG, gamma counter) [16]: more than doubled | glucose absorption in the small intestine (18FDG radiographs) vs vehicle group [16]: significantly higher | glucose excretion in the fecal samples (18FDG) [16]: higher | glycocalyx near the microvilli of the jejunum vs vehicle [17]: secreted more | number of mitochondria in the small intestine cells [17]: increased | GLUT1 phosphorylation [4]: promoted | expression of p-GLUT1 and GLUT1 [4]: increased | area values under the glucose change curve for 2 hours [18]: improved | intracellular glucose (2-DG) uptake [7]: increased | intracellular glucose (2-DG) uptake [8]: increased | 6-phosphate glucose in the cells [9]: increased | 6-phosphate glucose in the cells [10]: increased | PKC zeta staining in the duodenum vs vehicle [19]: no significant difference | location of PKC zeta in the jejunum and ileum [19]: tended to be concentrated in the apical membrane of the lumen | glucose metabolism (IP glucose tolerance test) compared to Vehicle ([12]; prostratin 1 mg/kg subcutaneously once, at 30 and 60 minutes): significantly improved | expression of GLUT1 (p-GLUT1) ([20]; negative control group (siNeg)): increased | expression of GLUT1 (p-GLUT1) ([20]; siRNA for atypical PKCs (PKCζ and PKC↓)): did not increase | glucose improvement (IPGTT) vs vehicle group ([13]; prostratin 0.5 mg/kg, entire period of 30 to 240 minutes): superior to that in the control group | 2DG uptake [14, 21]: not increased | 2DG uptake ([14]; negative control group (siNeg)): increased
